Each structure is given as a SMILES string.

Some targets named below: Adenosine receptor A2a (Homo sapiens, UniProt P29274); Cannabinoid receptor 1 (Homo sapiens, UniProt P21554); D(3) dopamine receptor (Homo sapiens, UniProt P35462).
The target of experiment [1] is T1, Alpha-2C adrenergic receptor (Homo sapiens, UniProt P18825).
T1 sequence (P18825 whole entry): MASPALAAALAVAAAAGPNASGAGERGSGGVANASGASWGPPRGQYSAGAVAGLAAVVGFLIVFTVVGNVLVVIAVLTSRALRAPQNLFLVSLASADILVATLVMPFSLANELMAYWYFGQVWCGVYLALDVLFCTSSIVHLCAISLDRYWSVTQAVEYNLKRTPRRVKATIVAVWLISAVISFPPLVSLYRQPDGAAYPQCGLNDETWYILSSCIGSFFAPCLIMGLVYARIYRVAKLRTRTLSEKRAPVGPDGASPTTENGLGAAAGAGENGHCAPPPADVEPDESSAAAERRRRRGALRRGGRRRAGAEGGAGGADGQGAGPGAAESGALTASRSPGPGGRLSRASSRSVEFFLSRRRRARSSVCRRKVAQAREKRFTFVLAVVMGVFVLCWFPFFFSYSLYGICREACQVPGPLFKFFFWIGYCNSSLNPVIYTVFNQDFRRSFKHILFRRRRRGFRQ
It is filed as functional.

Experiment [2] has as its target T2, Muscarinic acetylcholine receptor M1 (Homo sapiens, UniProt P11229).
T2 sequence (P11229 whole entry): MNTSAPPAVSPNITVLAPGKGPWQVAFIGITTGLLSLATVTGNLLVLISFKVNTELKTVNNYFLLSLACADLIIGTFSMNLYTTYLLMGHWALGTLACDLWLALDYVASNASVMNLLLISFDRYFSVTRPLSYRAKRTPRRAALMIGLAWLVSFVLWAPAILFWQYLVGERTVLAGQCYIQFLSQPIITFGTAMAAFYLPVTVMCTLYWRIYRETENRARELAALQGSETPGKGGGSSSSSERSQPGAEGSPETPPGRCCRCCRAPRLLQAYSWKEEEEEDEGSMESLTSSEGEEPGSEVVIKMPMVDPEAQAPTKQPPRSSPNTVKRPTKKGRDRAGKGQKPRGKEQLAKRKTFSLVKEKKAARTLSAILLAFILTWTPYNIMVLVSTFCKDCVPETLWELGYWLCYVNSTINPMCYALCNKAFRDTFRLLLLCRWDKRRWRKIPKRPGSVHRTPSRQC
It is filed as functional.

For experiment [3], the target named is Growth hormone secretagogue receptor type 1 (Homo sapiens, UniProt Q92847).
The target in experiment [4] is T3, 5-hydroxytryptamine receptor 1A (Homo sapiens, UniProt P08908).
T3 sequence (P08908 whole entry): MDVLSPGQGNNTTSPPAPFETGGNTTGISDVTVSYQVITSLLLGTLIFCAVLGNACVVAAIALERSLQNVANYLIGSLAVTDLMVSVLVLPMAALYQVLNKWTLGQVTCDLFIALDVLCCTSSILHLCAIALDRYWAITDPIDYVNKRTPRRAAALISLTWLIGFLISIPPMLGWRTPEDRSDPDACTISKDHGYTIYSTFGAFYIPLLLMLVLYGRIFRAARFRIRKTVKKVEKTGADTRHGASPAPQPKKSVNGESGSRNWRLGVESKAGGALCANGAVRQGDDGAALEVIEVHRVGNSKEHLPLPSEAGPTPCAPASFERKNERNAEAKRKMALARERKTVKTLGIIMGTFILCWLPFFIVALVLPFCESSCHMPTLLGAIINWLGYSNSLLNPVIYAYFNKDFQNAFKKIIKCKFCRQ
The experiment is classed as functional, cell-based.

The target in experiment [5] is 5-hydroxytryptamine receptor 2B (Homo sapiens, UniProt P41595). It is filed as functional, cell-based.
Experiment [6] concerns the target Voltage-gated inwardly rectifying potassium channel KCNH2 (Homo sapiens, UniProt Q12809). The experiment is classed as functional. The note with it: read-out: AC50.
Another experiment addresses T4, Thromboxane A2 receptor (Homo sapiens, UniProt P21731).
T4 sequence (P21731 whole entry): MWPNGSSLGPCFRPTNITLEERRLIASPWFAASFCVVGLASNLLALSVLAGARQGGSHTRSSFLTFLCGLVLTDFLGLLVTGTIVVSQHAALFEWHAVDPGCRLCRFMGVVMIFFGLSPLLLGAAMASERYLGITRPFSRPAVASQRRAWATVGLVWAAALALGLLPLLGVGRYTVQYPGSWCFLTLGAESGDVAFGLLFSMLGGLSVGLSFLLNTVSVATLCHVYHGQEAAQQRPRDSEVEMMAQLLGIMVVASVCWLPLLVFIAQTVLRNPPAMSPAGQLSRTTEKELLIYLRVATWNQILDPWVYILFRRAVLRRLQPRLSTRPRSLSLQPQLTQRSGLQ

For experiment [7], the target named is Sodium-dependent noradrenaline transporter (Homo sapiens, UniProt P23975).
Also: assay procedure not described here.

Chain of Cannabinoid receptor 1 (P21554 whole entry): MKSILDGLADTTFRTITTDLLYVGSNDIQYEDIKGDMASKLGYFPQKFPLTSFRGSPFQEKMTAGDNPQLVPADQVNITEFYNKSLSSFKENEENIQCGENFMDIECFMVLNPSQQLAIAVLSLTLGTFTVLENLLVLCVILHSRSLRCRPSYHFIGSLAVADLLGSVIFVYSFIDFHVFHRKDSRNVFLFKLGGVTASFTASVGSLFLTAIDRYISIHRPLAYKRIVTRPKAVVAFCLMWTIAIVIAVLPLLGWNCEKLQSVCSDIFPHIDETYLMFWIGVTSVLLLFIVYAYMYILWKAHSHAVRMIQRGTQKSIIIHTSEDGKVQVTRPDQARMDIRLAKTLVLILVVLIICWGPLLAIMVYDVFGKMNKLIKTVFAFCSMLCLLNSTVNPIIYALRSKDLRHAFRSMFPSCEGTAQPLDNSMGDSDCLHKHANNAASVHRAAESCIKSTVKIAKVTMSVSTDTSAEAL
Chain of Adenosine receptor A2a (P29274 whole entry): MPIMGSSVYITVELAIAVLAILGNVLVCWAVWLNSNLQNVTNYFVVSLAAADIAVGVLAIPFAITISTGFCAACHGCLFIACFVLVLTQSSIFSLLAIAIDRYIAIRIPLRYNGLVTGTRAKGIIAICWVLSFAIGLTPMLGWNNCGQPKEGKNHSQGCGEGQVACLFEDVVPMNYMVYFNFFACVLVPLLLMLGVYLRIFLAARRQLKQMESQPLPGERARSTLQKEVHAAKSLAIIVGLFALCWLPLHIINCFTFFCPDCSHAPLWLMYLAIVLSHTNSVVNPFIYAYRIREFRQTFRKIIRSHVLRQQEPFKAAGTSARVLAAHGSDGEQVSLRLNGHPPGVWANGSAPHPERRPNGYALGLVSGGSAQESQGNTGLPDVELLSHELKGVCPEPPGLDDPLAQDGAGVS
Chain of Voltage-gated inwardly rectifying potassium channel KCNH2 (Q12809 whole entry): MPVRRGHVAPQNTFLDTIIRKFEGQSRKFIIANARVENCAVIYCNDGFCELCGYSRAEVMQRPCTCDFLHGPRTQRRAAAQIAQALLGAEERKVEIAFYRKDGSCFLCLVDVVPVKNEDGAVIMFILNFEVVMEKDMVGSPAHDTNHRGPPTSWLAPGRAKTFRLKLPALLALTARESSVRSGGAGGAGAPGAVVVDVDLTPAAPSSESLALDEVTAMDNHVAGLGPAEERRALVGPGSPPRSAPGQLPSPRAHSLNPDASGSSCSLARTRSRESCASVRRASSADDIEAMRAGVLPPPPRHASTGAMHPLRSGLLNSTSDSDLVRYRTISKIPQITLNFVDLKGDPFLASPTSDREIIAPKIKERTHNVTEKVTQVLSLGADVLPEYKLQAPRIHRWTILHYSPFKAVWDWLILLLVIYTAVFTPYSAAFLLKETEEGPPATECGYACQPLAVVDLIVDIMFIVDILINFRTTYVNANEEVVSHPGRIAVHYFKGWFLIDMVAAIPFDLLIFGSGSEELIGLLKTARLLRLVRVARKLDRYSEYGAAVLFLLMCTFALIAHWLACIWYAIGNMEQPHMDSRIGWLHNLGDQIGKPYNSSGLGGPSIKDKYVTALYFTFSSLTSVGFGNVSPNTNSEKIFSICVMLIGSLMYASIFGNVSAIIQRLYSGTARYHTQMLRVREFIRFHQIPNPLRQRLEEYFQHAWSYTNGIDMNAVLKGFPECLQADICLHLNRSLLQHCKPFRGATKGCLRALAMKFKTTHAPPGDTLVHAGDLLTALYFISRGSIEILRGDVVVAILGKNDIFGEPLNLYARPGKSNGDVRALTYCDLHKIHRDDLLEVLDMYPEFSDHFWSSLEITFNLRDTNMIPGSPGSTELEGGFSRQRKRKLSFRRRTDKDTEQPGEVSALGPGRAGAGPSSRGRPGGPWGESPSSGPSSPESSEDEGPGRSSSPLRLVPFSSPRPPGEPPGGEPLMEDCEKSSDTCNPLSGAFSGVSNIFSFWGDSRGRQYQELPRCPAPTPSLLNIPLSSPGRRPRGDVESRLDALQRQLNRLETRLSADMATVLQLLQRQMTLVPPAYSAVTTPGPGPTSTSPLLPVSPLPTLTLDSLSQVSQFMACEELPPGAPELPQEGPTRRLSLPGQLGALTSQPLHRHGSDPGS
Chain of D(3) dopamine receptor (P35462 whole entry): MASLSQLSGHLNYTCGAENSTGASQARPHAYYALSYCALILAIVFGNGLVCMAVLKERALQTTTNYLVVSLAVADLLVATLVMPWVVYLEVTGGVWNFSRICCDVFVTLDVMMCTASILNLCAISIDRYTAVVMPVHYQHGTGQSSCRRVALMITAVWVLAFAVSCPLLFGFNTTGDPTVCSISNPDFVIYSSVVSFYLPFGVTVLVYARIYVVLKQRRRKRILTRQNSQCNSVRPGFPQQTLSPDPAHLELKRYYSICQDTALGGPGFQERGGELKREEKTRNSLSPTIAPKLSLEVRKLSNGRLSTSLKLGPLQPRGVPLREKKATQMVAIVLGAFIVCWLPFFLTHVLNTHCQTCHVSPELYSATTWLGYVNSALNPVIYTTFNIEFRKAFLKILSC
Chain of Sodium-dependent noradrenaline transporter (P23975 whole entry): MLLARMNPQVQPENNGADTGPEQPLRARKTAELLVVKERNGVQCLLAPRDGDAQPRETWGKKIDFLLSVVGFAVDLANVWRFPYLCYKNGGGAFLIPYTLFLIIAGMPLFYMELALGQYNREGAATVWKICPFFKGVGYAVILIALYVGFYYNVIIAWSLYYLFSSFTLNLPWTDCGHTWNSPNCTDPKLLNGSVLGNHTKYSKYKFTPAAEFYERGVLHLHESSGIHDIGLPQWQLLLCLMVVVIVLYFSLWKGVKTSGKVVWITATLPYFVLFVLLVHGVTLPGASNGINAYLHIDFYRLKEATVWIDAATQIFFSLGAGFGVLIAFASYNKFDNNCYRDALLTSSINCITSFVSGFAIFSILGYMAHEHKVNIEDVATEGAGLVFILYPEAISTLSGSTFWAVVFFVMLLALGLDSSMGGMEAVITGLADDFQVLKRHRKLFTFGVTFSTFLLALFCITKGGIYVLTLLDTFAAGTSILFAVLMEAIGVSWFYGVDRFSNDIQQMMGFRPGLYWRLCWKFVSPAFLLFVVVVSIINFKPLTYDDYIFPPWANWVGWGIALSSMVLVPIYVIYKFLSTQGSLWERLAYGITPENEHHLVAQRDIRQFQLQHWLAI
Chain of 5-hydroxytryptamine receptor 2B (P41595 whole entry): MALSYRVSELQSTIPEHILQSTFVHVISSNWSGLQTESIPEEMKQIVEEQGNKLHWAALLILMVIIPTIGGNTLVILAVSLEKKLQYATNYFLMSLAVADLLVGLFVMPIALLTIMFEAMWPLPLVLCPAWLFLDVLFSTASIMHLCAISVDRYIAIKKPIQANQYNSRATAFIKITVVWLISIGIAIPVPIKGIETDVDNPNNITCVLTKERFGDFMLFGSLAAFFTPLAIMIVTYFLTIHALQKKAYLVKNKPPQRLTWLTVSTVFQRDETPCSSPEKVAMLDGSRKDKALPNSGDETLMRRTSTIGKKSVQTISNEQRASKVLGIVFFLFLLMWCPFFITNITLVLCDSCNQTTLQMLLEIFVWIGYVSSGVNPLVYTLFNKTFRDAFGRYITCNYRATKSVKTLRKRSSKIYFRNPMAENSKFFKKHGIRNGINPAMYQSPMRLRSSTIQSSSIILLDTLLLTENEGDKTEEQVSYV
Chain of Growth hormone secretagogue receptor type 1 (Q92847 whole entry): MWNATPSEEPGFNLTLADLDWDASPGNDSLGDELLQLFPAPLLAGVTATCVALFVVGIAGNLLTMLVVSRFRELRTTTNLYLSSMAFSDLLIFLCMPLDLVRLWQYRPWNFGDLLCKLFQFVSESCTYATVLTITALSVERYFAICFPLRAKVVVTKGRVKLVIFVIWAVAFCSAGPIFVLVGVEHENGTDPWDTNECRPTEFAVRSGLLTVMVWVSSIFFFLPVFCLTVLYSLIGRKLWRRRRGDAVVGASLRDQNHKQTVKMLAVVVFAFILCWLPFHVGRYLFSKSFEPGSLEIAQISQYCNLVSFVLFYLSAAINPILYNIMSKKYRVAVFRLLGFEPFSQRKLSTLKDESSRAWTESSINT

What is called AC50 is the concentration at which the activity in the assay is half-maximal. Regarding `C[C@H](CSC(=O)c1ccccc1)C(=O)N1C[C@@H](Sc2ccccc2)C[C@H]1C(=O)O` [ZOFENOPRIL], the AC50 (at Adenosine receptor A2a; in experiment [1]; in experiment [2]; on Cannabinoid receptor 1; in experiment [3]; in experiment [4]) was above 10 µM throughout. Besides, the AC50 is above 10 µM in experiment [5]; above 30 µM in [6]; above 10 µM on Thromboxane A2 receptor; above 10 µM in experiment [7]; above 30 µM at D(3) dopamine receptor.

Regarding `C[C@]1(O)CC[C@H]2[C@@H]3CCC4=CC(=O)CC[C@]4(C)[C@@]3(F)[C@@H](O)C[C@@]21C` [FLUOXYMESTERONE], the AC50 at Adenosine receptor A2a is above 10 µM; in [1] it was above 30 µM; in [2] it was above 30 µM; on Cannabinoid receptor 1 it was above 10 µM; in experiment [3], above 10 µM; in experiment [4], above 10 µM. Further, the AC50 in [5] was above 10 µM; in experiment [6], above 30 µM; on Thromboxane A2 receptor, above 10 µM; in experiment [7] it was above 10 µM; on D(3) dopamine receptor, above 30 µM.

For `C=CCC1(C(C)CC)C(=O)NC(=O)NC1=O` (configuration not stated) [TALBUTAL], the AC50 (at Adenosine receptor A2a; in experiment [1]; in experiment [2]; on Cannabinoid receptor 1; in experiment [3]; in experiment [4]) was above 10 µM each time. For the same compound, the AC50 in experiment [5] is above 10 µM; in [6], above 30 µM; on Thromboxane A2 receptor, above 10 µM; in experiment [7], above 10 µM; at D(3) dopamine receptor, above 30 µM.

As for `Cc1cc(O)c(C(=O)N[C@@H](C(=O)N[C@@H]2C(=O)N3C(C(=O)O)=C(CSc4nnnn4C)CS[C@H]23)c2ccc(O)cc2)cn1` [CEFPIRAMIDE], the AC50 (at Adenosine receptor A2a; in experiment [1]; in experiment [2]; on Cannabinoid receptor 1; in [3]; in experiment [4]) was above 30 µM each time. The AC50 (in experiment [5]; in experiment [6]; on Thromboxane A2 receptor; in [7]; on D(3) dopamine receptor) was above 30 µM throughout.

For the compound `CO[C@@H]1[C@@H](O[C@@H]2O[C@H](C)[C@@H](O[C@H]3C[C@@](C)(O)[C@@H](OC(=O)CC(C)C)[C@H](C)O3)[C@H](N(C)C)[C@H]2O)[C@@H](CC=O)C[C@@H](C)[C@@H](O)/C=C/C=C/C[C@@H](C)OC(=O)C[C@H]1OC(C)=O` [JOSAMYCIN], the half-maximal activity concentration (AC50) (at Adenosine receptor A2a; in experiment [1]; in experiment [2]; on Cannabinoid receptor 1; in experiment [3]; in [4]) was above 10 µM each time. The half-maximal activity concentration (AC50) in experiment [5] was above 10 µM; in experiment [6], above 30 µM; at Thromboxane A2 receptor, above 10 µM; in [7], above 10 µM; at D(3) dopamine receptor, above 30 µM.

Regarding `CCCC(=O)O[C@]1(C(=O)CO)CC[C@H]2[C@@H]3CCC4=CC(=O)CC[C@]4(C)[C@H]3[C@@H](O)C[C@@]21C` [HYDROCORTISONE BUTYRATE], the AC50 (on Adenosine receptor A2a; in experiment [1]; in experiment [2]; at Cannabinoid receptor 1; in experiment [3]; in experiment [4]) was above 10 µM in each case. Besides, the AC50 is above 10 µM in experiment [5]; above 30 µM in [6]; above 10 µM on Thromboxane A2 receptor; above 10 µM in [7]; above 30 µM at D(3) dopamine receptor.

Regarding `Cc1cccc(C(C)c2cnc[nH]2)c1C` (configuration not stated) [MEDETOMIDINE], the AC50 is above 30 µM on Adenosine receptor A2a; 1.3 µM in experiment [1]; above 30 µM in experiment [2]; above 30 µM on Cannabinoid receptor 1; above 30 µM in [3]; above 30 µM in [4]. Besides, the AC50 was above 30 µM in experiment [5]; 17.8 µM in experiment [6]; above 30 µM at Thromboxane A2 receptor; above 30 µM in [7]; above 30 µM at D(3) dopamine receptor.

For `COC(=O)C1=C(C)NC(C)=C(C(=O)OC(C)(C)CN(C)CCC(c2ccccc2)c2ccccc2)C1c1cccc([N+](=O)[O-])c1` (configuration not stated) [LERCANIDIPINE], the AC50 was above 30 µM on Adenosine receptor A2a; above 30 µM in experiment [1]; above 30 µM in [2]; 6.6 µM at Cannabinoid receptor 1; above 30 µM in experiment [3]; above 30 µM in experiment [4]. For the same compound, the AC50 (in experiment [5]; in [6]; at Thromboxane A2 receptor; in [7]; at D(3) dopamine receptor) was above 30 µM each time.

On to `O=C(O)C1=C(CSc2nnnn2CS(=O)(=O)O)CS[C@@H]2[C@H](NC(=O)[C@H](O)c3ccccc3)C(=O)N12` [CEFONICID], for which the AC50 (on Adenosine receptor A2a; in experiment [1]; in experiment [2]; at Cannabinoid receptor 1; in experiment [3]; in [4]) was above 30 µM each time. The AC50 (in experiment [5]; in experiment [6]; on Thromboxane A2 receptor; in experiment [7]; on D(3) dopamine receptor) was above 30 µM throughout.

With `O=C(O)CCCCCCCC(=O)O` [AZELAIC ACID], the AC50 (on Adenosine receptor A2a; in experiment [1]; in experiment [2]; on Cannabinoid receptor 1; in experiment [3]; in experiment [4]) was above 10 µM in each case. The AC50 was above 10 µM in experiment [5]; above 30 µM in experiment [6]; above 10 µM on Thromboxane A2 receptor; above 10 µM in experiment [7]; above 30 µM on D(3) dopamine receptor.

With `CC1(C)O[C@@H]2C[C@H]3[C@@H]4CCC5=CC(=O)C=C[C@]5(C)[C@H]4[C@@H](O)C[C@]3(C)[C@]2(C(=O)CO)O1` [DESONIDE], the AC50 (at Adenosine receptor A2a; in experiment [1]; in experiment [2]; at Cannabinoid receptor 1; in experiment [3]; in experiment [4]) was above 10 µM throughout. Further, the AC50 in experiment [5] was above 10 µM; in experiment [6], above 30 µM; at Thromboxane A2 receptor, above 10 µM; in experiment [7] it was above 10 µM; at D(3) dopamine receptor, above 30 µM.

Turning to `O=C(O)C[C@H](O)C[C@H](O)/C=C/c1c(C2CC2)nc2ccccc2c1-c1ccc(F)cc1` [PITAVASTATIN], the AC50 was above 30 µM at Adenosine receptor A2a; above 30 µM in [1]; above 30 µM in experiment [2]; above 10 µM on Cannabinoid receptor 1; above 10 µM in experiment [3]; above 10 µM in experiment [4]. In addition, the AC50 is above 10 µM in experiment [5]; above 30 µM in experiment [6]; above 10 µM on Thromboxane A2 receptor; above 30 µM in experiment [7]; above 30 µM on D(3) dopamine receptor.

The values above are taken from ChEMBL document CHEMBL5291721, “A preclinical secondary pharmacology resource illuminates target-adverse drug reaction associations of marketed drugs” (Nat Commun, 2023).
